Test results from patent EP0584797A2, “Novel cephalosporin compounds and processes for the preparation thereof” (LUCKY LTD., priority 1992, dated 1994).
≈ marks a conversion by molar mass, not a printed value.

Columns and labels:
Experiment in all cases: minimal inhibitory concentration, two-fold agar dilution
Type in all cases: cell-based
[1] = tested on: Shigella sonnei ATCC 11060; conditions: ATCC11060, Muller-Hinton agar, 37°C, 20 hours, read-out: MIC values against the standard strains
Experimental: (§1) These MIC values were taken by employing a two-fold dilution method: that is, two-fold serial dilutions of each of the test compounds were made and dispersed in a Muller-Hinton agar medium; 2µl of the standard test strain which had the 10⁷ CFU(Colony Forming Unit) per ml was inoculated on the medium; and these were incubated at 37°C for 20 hours.

[2] = tested on: Shigella flexneri ATCC 11836; conditions: ATCC11836, Muller-Hinton agar, 37°C, 20 hours, read-out: MIC values against the standard strains
Experimental: as §1

[3] = tested on: Morganella morganii ATCC 8076h; conditions: ATCC8076H, Muller-Hinton agar, 37°C, 20 hours, read-out: MIC values against the standard strains
Experimental: as §1

[4] = tested on: Klebsiella pneumoniae ATCC 10031; conditions: ATCC10031, Muller-Hinton agar, 37°C, 20 hours, read-out: MIC values against the standard strains
Experimental: as §1

[5] = tested on: Enterobacter aerogenes ATCC 29751; conditions: Klebsiella aerogenes, ATCC29751; Muller-Hinton agar; 37°C; 20 hours; read-out: MIC values against the standard strains
Experimental: as §1

[6] = tested on: Pseudomonas aeruginosa ATCC 10145; conditions: ATCC10145, Muller-Hinton agar, 37°C, 20 hours, read-out: MIC values against the standard strains
Experimental: as §1

[7] = tested on: Enterobacter cloacae ATCC 27508; conditions: ATCC27508, Muller-Hinton agar, 37°C, 20 hours, read-out: MIC values against the standard strains
Experimental: as §1

[8] = tested on: Acinetobacter calcoaceticus ATCC 15473; conditions: ATCC15473, Muller-Hinton agar, 37°C, 20 hours, read-out: MIC values against the standard strains
Experimental: as §1

[9] = tested on: Bacillus megaterium ATCC 9885; conditions: Priestia megaterium, ATCC9885; Muller-Hinton agar; 37°C; 20 hours; read-out: MIC values against the standard strains
Experimental: as §1

[10] = tested on: Providencia rettgeri ATCC 9250; conditions: ATCC9250, Muller-Hinton agar, 37°C, 20 hours, read-out: MIC values against the standard strains
Experimental: as §1

[11] = tested on: Serratia marcescens ATCC 27117; conditions: ATCC27117, Muller-Hinton agar, 37°C, 20 hours, read-out: MIC values against the standard strains
Experimental: as §1

[12] = tested on: Pseudomonas aeruginosa ATCC 25619; conditions: ATCC25619, Muller-Hinton agar, 37°C, 20 hours, read-out: MIC values against the standard strains
Experimental: as §1

[13] = tested on: Streptococcus faecalis ATCC 29212; conditions: Enterococcus faecalis, ATCC29212; Muller-Hinton agar; 37°C; 20 hours; read-out: MIC values against the standard strains
Experimental: as §1

[14] = tested on: Pseudomonas aeruginosa ATCC 27853; conditions: ATCC27853, Muller-Hinton agar, 37°C, 20 hours, read-out: MIC values against the standard strains
Experimental: as §1

[15] = tested on: Staphylococcus epidermidis ATCC 12228; conditions: ATCC12228, Muller-Hinton agar, 37°C, 20 hours, read-out: MIC values against the standard strains
Experimental: as §1

[16] = tested on: Proteus vulgaris ATCC 6059; conditions: ATCC6059, Muller-Hinton agar, 37°C, 20 hours, read-out: MIC values against the standard strains
Experimental: as §1

[17] = tested on: Staphylococcus aureus ATCC 6538p; conditions: ATCC6538P, Muller-Hinton agar, 37°C, 20 hours, read-out: MIC values against the standard strains
Experimental: as §1

[18] = tested on: Micrococcus luteus ATCC 9341; conditions: ATCC9341, Muller-Hinton agar, 37°C, 20 hours, read-out: MIC values against the standard strains
Experimental: as §1

[19] = tested on: Escherichia coli ATCC 25922; conditions: ATCC25922, Muller-Hinton agar, 37°C, 20 hours, read-out: MIC values against the standard strains
Experimental: as §1

[20] = tested on: Bacillus cereus ATCC 11778; conditions: ATCC11778, Muller-Hinton agar, 37°C, 20 hours, read-out: MIC values against the standard strains
Experimental: as §1

[21] = tested on: Escherichia coli ATCC 10536; conditions: ATCC10536, Muller-Hinton agar, 37°C, 20 hours, read-out: MIC values against the standard strains
Experimental: as §1

[22] = tested on: Citrobacter freundii ATCC 8090; conditions: ATCC8090, Muller-Hinton agar, 37°C, 20 hours, read-out: MIC values against the standard strains
Experimental: as §1

[23] = tested on: Staphylococcus aureus ATCC 10537; conditions: ATCC10537, Muller-Hinton agar, 37°C, 20 hours, read-out: MIC values against the standard strains
Experimental: as §1

[24] = tested on: Proteus mirabilis ATCC 25933; conditions: ATCC25933, Muller-Hinton agar, 37°C, 20 hours, read-out: MIC values against the standard strains
Experimental: as §1

[25] = tested on: Salmonella typhimurium ATCC 14028; conditions: Salmonella enterica; Muller-Hinton agar; 37°C; 20 hours; read-out: MIC values against the standard strains
Experimental: as §1

| Structure (SMILES) | MIC [1] | MIC [2] | MIC [3] | MIC [4] | MIC [5] | MIC [6] | MIC [7] | MIC [8] | MIC [9] | MIC [10] | MIC [11] | MIC [12] | MIC [13] | MIC [14] | MIC [15] | MIC [16] | MIC [17] | MIC [18] | MIC [19] | MIC [20] | also measured |
| --- | --- | --- | --- | --- | --- | --- | --- | --- | --- | --- | --- | --- | --- | --- | --- | --- | --- | --- | --- | --- | --- |
| CCO/N=C(\C(=O)N[C@@H]1C(=O)N2C(C(=O)[O-])=C(CSc3nc(N)c4ccccc4[n+]3C)CS[C@H]12)c1csc(N)n1 [Example 29, 7-[(Z)-2-(2-aminothiazol-4-yl)-2-(ethoxyimino)acetamido]-3-(4-amino-1-methylbenzo-[5,6,e]pyrimidinium-2-yl)thiomethyl-3-cephem-4-carboxylate] | 0.25 µg/mL (≈ 0.416 µM) | 0.063 µg/mL (≈ 0.105 µM) | ≤ 0.008 µg/mL | ≤ 0.008 µg/mL | 0.25 µg/mL (≈ 0.416 µM) | 16 µg/mL (≈ 26.6 µM) | ≤ 0.008 µg/mL | 16 µg/mL (≈ 26.6 µM) | 0.063 µg/mL (≈ 0.105 µM) | ≤ 0.008 µg/mL | 0.5 µg/mL (≈ 0.832 µM) | 4 µg/mL (≈ 6.66 µM) | 16 µg/mL (≈ 26.6 µM) | 16 µg/mL (≈ 26.6 µM) | 0.031 µg/mL (≈ 0.0516 µM) | 0.5 µg/mL (≈ 0.832 µM) | 0.13 µg/mL (≈ 0.216 µM) | 0.016 µg/mL (≈ 0.0266 µM) | 0.13 µg/mL (≈ 0.216 µM) | 16 µg/mL (≈ 26.6 µM) | MIC [21]: 0.13 µg/mL (≈ 0.216 µM); MIC [22]: 0.13 µg/mL (≈ 0.216 µM); MIC [23]: 0.13 µg/mL (≈ 0.216 µM); MIC [24]: 0.5 µg/mL (≈ 0.832 µM); MIC [25]: 0.5 µg/mL (≈ 0.832 µM) |
| C[n+]1c(SCC2=C(C(=O)[O-])N3C(=O)[C@@H](NC(=O)/C(=N\OC(C)(C)C(=O)O)c4csc(N)n4)[C@H]3SC2)nc(N)c2ccoc21 [Example 32, 7-[(Z)-2-(2-aminothiazol-4-yl)-2-(carboxyprop-2-oxyimino)acetamido]-3-(4-amino-1-methylfuro[5,6,e]pyrimidinium-2-yl-)thiomethyl-3-cephem-4-carboxylate] | 0.13 µg/mL (≈ 0.2 µM) | 0.031 µg/mL (≈ 0.0478 µM) | ≤ 0.008 µg/mL | 0.016 µg/mL (≈ 0.0247 µM) | 2 µg/mL (≈ 3.08 µM) | 4 µg/mL (≈ 6.17 µM) | 0.016 µg/mL (≈ 0.0247 µM) | 8 µg/mL (≈ 12.3 µM) | 0.13 µg/mL (≈ 0.2 µM) | ≤ 0.008 µg/mL | 0.25 µg/mL (≈ 0.385 µM) | 1 µg/mL (≈ 1.54 µM) | > 128 µg/mL | 2 µg/mL (≈ 3.08 µM) | 2 µg/mL (≈ 3.08 µM) | 0.13 µg/mL (≈ 0.2 µM) | 4 µg/mL (≈ 6.17 µM) | 0.25 µg/mL (≈ 0.385 µM) | 0.063 µg/mL (≈ 0.0971 µM) | 128 µg/mL (≈ 197 µM) | MIC [21]: 0.063 µg/mL (≈ 0.0971 µM); MIC [22]: 0.13 µg/mL (≈ 0.2 µM); MIC [23]: 2 µg/mL (≈ 3.08 µM); MIC [24]: 0.13 µg/mL (≈ 0.2 µM); MIC [25]: 0.25 µg/mL (≈ 0.385 µM) |
| Cc1c[n+](N)c(SCC2=C(C(=O)[O-])N3C(=O)[C@@H](NC(=O)/C(=N\OC(C)(C)C(=O)O)c4csc(N)n4)[C@H]3SC2)nc1N [Example 57] | 0.063 µg/mL (≈ 0.101 µM) | 0.063 µg/mL (≈ 0.101 µM) | ≤ 0.008 µg/mL | 0.063 µg/mL (≈ 0.101 µM) | 0.5 µg/mL (≈ 0.802 µM) | 2 µg/mL (≈ 3.21 µM) | ≤ 0.008 µg/mL | 16 µg/mL (≈ 25.7 µM) | 0.25 µg/mL (≈ 0.401 µM) | ≤ 0.008 µg/mL | 0.13 µg/mL (≈ 0.208 µM) | 1 µg/mL (≈ 1.6 µM) | > 128 µg/mL | 2 µg/mL (≈ 3.21 µM) | 2 µg/mL (≈ 3.21 µM) | 0.031 µg/mL (≈ 0.0497 µM) | 8 µg/mL (≈ 12.8 µM) | 0.25 µg/mL (≈ 0.401 µM) | 0.063 µg/mL (≈ 0.101 µM) | 128 µg/mL (≈ 205 µM) | MIC [21]: 0.063 µg/mL (≈ 0.101 µM); MIC [22]: 0.031 µg/mL (≈ 0.0497 µM); MIC [23]: 2 µg/mL (≈ 3.21 µM); MIC [24]: 0.031 µg/mL (≈ 0.0497 µM); MIC [25]: 0.13 µg/mL (≈ 0.208 µM) |
| CN(C)c1cc(N)nc(SCC2=C(C(=O)[O-])N3C(=O)[C@@H](NC(=O)/C(=N\OC(C)(C)C(=O)O)c4csc(N)n4)[C@H]3SC2)[n+]1C [Example 50, 7-[(Z)-2-(2-aminothiazol-4-yl)-2-(carboxyprop-2-oxyimino)acetamido]-3-{4-amino-1-methyl-6-(N,N-dimethyl)aminopyrimidinium-2-yl}thiomethyl-3-cephem-4-carboxylate] | 0.063 µg/mL (≈ 0.0967 µM) | 0.031 µg/mL (≈ 0.0476 µM) | ≤ 0.008 µg/mL | 0.063 µg/mL (≈ 0.0967 µM) | 0.5 µg/mL (≈ 0.767 µM) | 2 µg/mL (≈ 3.07 µM) | ≤ 0.008 µg/mL | 4 µg/mL (≈ 6.14 µM) | 0.25 µg/mL (≈ 0.384 µM) | ≤ 0.008 µg/mL | 0.13 µg/mL (≈ 0.199 µM) | 1 µg/mL (≈ 1.53 µM) | > 128 µg/mL | 1 µg/mL (≈ 1.53 µM) | 2 µg/mL (≈ 3.07 µM) | 0.031 µg/mL (≈ 0.0476 µM) | 8 µg/mL (≈ 12.3 µM) | 0.25 µg/mL (≈ 0.384 µM) | 0.063 µg/mL (≈ 0.0967 µM) | 128 µg/mL (≈ 196 µM) | MIC [21]: 0.063 µg/mL (≈ 0.0967 µM); MIC [22]: 0.063 µg/mL (≈ 0.0967 µM); MIC [23]: 4 µg/mL (≈ 6.14 µM); MIC [24]: 0.031 µg/mL (≈ 0.0476 µM); MIC [25]: 0.13 µg/mL (≈ 0.199 µM) |
